Here are results for 2 compounds from patent US8501787B2, “Compounds for the inhibition of angiogenesis and use thereof” (Shire Orphan Therapies GmbH, priority 2004, dated 2013).

Read-outs that look alike come from different tables or passages of the source.

In assay [1] the test system is retinal angiogenesis. Nature of the assay: Physiological retinal angiogenesis at newborn rats. In kind it is in vivo, Sprague Dawley rats. To be noted: intravitreal injection at P1 and P3, evaluated at P6, compared to vehicle treated and non-treated eye. From the text: Rats are born with a completely avascular retina with physiological retinal vascular development occurring in a centripetal manner within the first two weeks of life. At postnatal day P6 approximately 65% is physiologically vascularized, with vascularization being complete by P10-14.
Sprague Dawley rats were used according to protocols which are in conformity with the Association for Research in Vision and Ophthalmology's statements on the Use of Animals in Ophthalmic Research.
Rat pups were taken from within 24 h of birth and injected intravitreally at P1 with 3 μL of selected compound solved in saline. The same injection was repeated at P3. Controls include vehicle injected, as well as uninjected eyes. The animals were sacrificed by decapitation at P6. Upon sacrifice the eyes were enucleated and fixed in 10% buffered formalin phosphate (Fisher Scientific) for 30 minutes at RT. The retinas were dissected and post-fixed in methanol for 10 minutes at −20° C. The retinas were washed with 1% Triton X-100 in PBS and incubated overnight with a 1/100 solution of TRITC conjugated lectin griffonia simplicifolia (Sigma-Aldrich) in 1% Triton X-100 in PBS. […] The percentage of total vascularized area was calculated as a percent of the vascularized area over the total surface area (Adobe-Photoshop).

Assay [2] concerns the target T1, integrin alphavbeta5 (Homo sapiens, UniProt P06756+P18084).
T1 construct: purchased Chemicon (Chemicon Europe, Germany)
The experiment in a line: Vitronectin binding assay, alphavbeta5 (competitive ELISA). To be noted: inhibition of integrin binding to vitronectin. On the procedure:
(§1) The optimal concentrations of integrin and ligand were selected from ELISA binding studies with variable concentrations of both to obtain optimal signal noise ratio for further studies. IC50 studies were performed with fixed concentration of ligand and integrin and a serial dilution of inhibitor. The plates were measured with SpectraMax Plus reader (Molecular Devices). The resulting inhibition curves were analyzed using SoftMaxPro 4.0 software, the turning point describes the IC50 value.
(§2) Fibronectin and Vitronectin were purchased from Sigma, fibrinogen from Calbiochem. (EMD Biosciences, Darmstadt, Germany) The integrin alpha5beta1 extracellular domain Fc-fusion was expressed and purified as described in (Coe, 2001, JBC, 276, 35854). Integrins alphavbeta3 and alphavbeta5 were purchased from Chemicon (Chemicon Europe, Germany) and alphaIIbbeta3 form Kordia (Kordia Life Science, Leiden, Netherlands)
Vitronectin was diluted with coating buffer (15 mM Na2CO3, 35 mM NaHCO3, pH9.6) and coated with 50 μL/well to Nunc-Immuno maxisorp plates over night at 4° C. […]
Plates were then washed (3 times) with buffer 2 and incubated with 50 μL of anti-alphavbeta5 antibody (Chemicon) in buffer 2 for 1 hour at RT. […] The developed colour was measured at 450 nm and analyzed as described above.

Assay [3] deals with T2, integrin alphavbeta3 (Homo sapiens, UniProt P05106+P06756).
T2 construct: purchased Chemicon (Chemicon Europe, Germany)
The experiment in a line: Vitronectin binding assay, alphavbeta3 (competitive ELISA). Conditions: inhibition of integrin binding to vitronectin. On the procedure: as §1, §2
Vitronectin was diluted with coating buffer (15 mM Na2CO3, 35 mM NaHCO3, pH9.6) and coated with 100 μL/well to Nunc-Immuno maxisorp plates over night at 4° C. After discarding the coating solution plates were washed 3 times with buffer 1 (25 mM Tris, pH7.6, 150 mM NaCl, 1 mM MnCl2, 1 mg/mL BSA) and blocked with 100 μL blocking buffer (3% BSA in PBS 0.1% Tween20) for 1 hour at room temperature. […] The developed colour was measured at 450 nm and analyzed as described above.

Assay [4] addresses T3, integrin alpha5beta1 (Homo sapiens, UniProt P05556+P08648).
T3 construct: The integrin alpha5beta1 extracellular domain Fc-fusion was expressed and purified; made in house
Nature of the assay: Alpha5beta1-Fibronectin binding assay (competitive ELISA). On the procedure: as §1, §2
Fibronectin was diluted with coating buffer (15 mM Na2CO3, 35 mM NaHCO3, pH9.6) and coated with 100 μL/well to Nunc-Immuno maxisorp plates (Nalge Nunc Europe Ltd) over night at 4° C. After discarding the coating solution plates were washed 3 times with buffer 1 ([…], pH7.6, 150 mM NaCl, 1 mM […], 1 mg/mL BSA) and blocked with 100 μL blocking buffer (3% BSA in PBS 0.1% Tween20) for 1 hour at room temperature. After washing the blocked plates (3 times) with buffer 1, integrin (50 μL) and either inhibitor (serial dilution in buffer 1) or buffer 1 (50 μL) were added to the wells and incubated for one hour at RT. Plates were then washed (3 times) with buffer 1 and incubated with 100 μL of anti-human-Fc-HRP antibody conjugate (Sigma-Aldrich, Taufkirchen, Germany) in buffer 1 for 1 hour at RT. After additional washing steps (3 times) with buffer 1 50 μL of HRP substrate solution TMB (Seramun, Germany) were added to the wells. Colour development was stopped after 3-5 minutes with 50 μL 1M H2SO4. The developed colour was measured at 450 nm and analyzed as described above.

The target in assay [5] is T4, integrin alphaIIbbeta3 (Homo sapiens, UniProt P05106+P08514).
T4 construct: purchased Kordia (Kordia Life Science, Leiden, Netherlands)
Nature of the assay: AlphaIIbbeta3-Fibrinogen binding assay (competitive ELISA). Conditions: inhibition of integrin binding to fibrinogen; read-out: IC50 alphabIIbbeta3 in nM. How it is done: as §1, §2
Fibrinogen was diluted with coating buffer (15 mM Na2CO3, 35 mM NaHCO3, pH9.6) and coated with 100 μL/well to Nunc-Immuno maxisorp plates over night at 4° C. After discarding the coating solution plates were washed 3 times with buffer 1 (25 mM Tris, pH7.6, 150 mM NaCl, 1 mM MnCl2, 1 mg/mL BSA) and blocked with 100 μL blocking buffer (3% BSA in PBS 0.1% Tween20) for 1 hour at room temperature. […] The developed colour was measured at 450 nm and analyzed as described above.

For assay [6], the system named is K562 erythroleukemia cells. The experiment in a line: Cell adhesion assay with K562 on fibronectin. Conditions: at 0.5 μM; OD 570. The format is cell-based. How it is done:
K562 erythroleukemia cells were obtained from the German Collection of Microorganisms and Cell Cultures GmbH (DMSZ, Braunschweig, Germany). Cells were cultured in RPMI medium containing 10% fetal calf serum, 2 mM glutamine and 100 U/mL penicillin-streptomycin (all from Biochrom AG, Germany).
The cell adhesion assays were performed in 96-well Nunc-Immuno maxisorp plates. The wells were coated for 1 h at 37° C. with 100 μL aliquots of fibronectin (10 μg/mL in phosphate-buffered-saline, 120-kDa fragment, Chemicon Europe, Germany), then blocked with 10 mg/mL heat denatured BSA in phosphate buffer for 30 min.
K562 cells were resuspended to 4×10^6 cells/mL in […], 25 mM Hepes, 2 mM EDTA, pH 7.4, and incubated for 30 min at 37° C. As a next step the cells were washed two times with the same buffer. 100 μL cell aliquots were then added to 100 μL aliquots of the same buffer with in addition 4 mM MgCl2, […] and different concentrations of compounds. These samples were preincubated for 30 min at 37° C. After that 100 μL aliquots were transferred to the microtiter wells and the cells were allowed to adhere to the substrate for 30 min at 37° C. in a humidified atmosphere of 5% CO2. […]
The absorbance of each well at 570 nm was then measured using the SpectraMax Plus reader. […]

Setting [7] is: inhibition of integrin binding to fibronectin, read-out: IC50 alpha5beta1 in nM.
Where [8] appears, read: method of section 1.1, read-out: Group (binding activities to integrin alpha5beta1).

Take `Cc1cc(C)c(S(=O)(=O)N[C@@H](CNC(=O)CO[C@@H]2C[C@@H](CNc3ccccn3)N(C(=O)OCc3ccccc3)C2)C(=O)O)c(C)c1` [Compound 5, 12S,14R,30S-4-{[2-Carboxy-2-(2,4,6-trimethyl-benzenesulfonylamino)-ethylcarbamoyl]-methoxy}-2-(pyridin-2-ylaminomethyl)-pyrrolidine-1-carboxylic acid benzyl ester]: the “retinal angiogenesis (vessel area, % of total retinal area)” value in assay [1] is on record as “significantly reduced”. In addition, the IC50 in assay [2] was 230 nM; in assay [3], 11.6 nM; in assay [4] (setting [7]), 3.7 nM; in assay [4] (setting [8]) it was less than 10 nM; in assay [5] it was 9000 nM.
As to `Cc1cc(C)c(C(=O)N[C@@H](CNC(=O)CO[C@@H]2C[C@@H](CNc3ccccn3)N(C(=O)OCc3ccccc3)C2)C(=O)O)c(C)c1` [Compound 71, 4-{[2-Carboxy-2-(2,4,6-trimethyl-benzoylamino)-ethylcarbamoyl]-methoxy}-2-(pyridin-2-ylaminomethyl)-pyrrolidine-1-carboxylic acid benzyl ester], the IC50 in assay [2] was more than 50000 nM; in assay [3] it was approximately 30000 nM; in assay [4] (setting [7]), 2.4 nM; in assay [4] (setting [8]), less than 10 nM; in assay [5], more than 50000 nM. In addition, the “inhibition of K562 cell adhesion to fibronectin” value in assay [6] is “significantly active in inhibiting cell adhesion”.
